Broadly, the GI50 is the concentration giving 50% growth inhibition.

Among the test systems are LOX IMVI; MDA-MB-435; SN12C; NCI-H23; COLO 205; 786-0; PC-3; SNB-19; MOLT-4; MDA-N; IGROV-1; Malme-3M; TK-10; NCI-H460; HL-60; UACC-257; SF-539; M14; SK-MEL-2; MCF7.
Common to all, as to assay: DTP human tumour cell line panel, 48 h

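Compound exposure: 48 hours, 5 concentrations, 96-well plates. GI50 = concentration required for 50% inhibition of growth.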 Active and inactive are the calls of the source. No stated cut-off is given here; in the data, active = GI50 up to about 1.1 µM and inactive = higher.

Regarding `Cc1cc2c(cc1Cl)SC(NNc1cnc3ccccc3n1)=NS2(=O)=O`, the GI50 with LOX IMVI is 46 µM (inactive); with MDA-MB-435, > 100 µM (inactive); in the assay on SN12C it was 88.3 µM (inactive); in the assay on NCI-H23, > 100 µM (inactive); in the assay with COLO 205, 49.7 µM (inactive); in the assay with 786-0, 38.3 µM (inactive). The GI50 in the assay on PC-3 was 35.4 µM (inactive); in the assay with SNB-19 it was 50.1 µM (inactive); with MOLT-4, 26.6 µM (inactive); with MDA-N, 90.2 µM (inactive); in the assay with IGROV-1, 41.8 µM (inactive); in the assay on Malme-3M, 22.6 µM (inactive). Further, the GI50 with TK-10 is > 100 µM (inactive); in the assay on NCI-H460 it was 33.8 µM (inactive); in the assay with HL-60, > 100 µM (inactive); in the assay on UACC-257 it was 72.8 µM (inactive); in the assay with SF-539 it was 29.4 µM (inactive); with M14, 74.1 µM (inactive).

As for `O=C(O)c1cccc(Nc2c(C(=O)O)cccc2[N+](=O)[O-])c1`, the GI50 in the assay with LOX IMVI, in the assay with SK-MEL-2, in the assay on SN12C, in the assay on NCI-H23, with COLO 205 and in the assay with 786-0 was > 100 µM (inactive) in each case. For the same compound, the GI50 in the assay on PC-3 is > 100 µM (inactive); with SNB-19, > 100 µM (inactive); in the assay with MOLT-4, > 100 µM (inactive); in the assay on MDA-N it was > 100 µM (inactive); with IGROV-1, > 100 µM (inactive); with Malme-3M, 38.5 µM (inactive). In addition, the GI50 in the assay with TK-10, in the assay on MCF7, in the assay with NCI-H460, in the assay with HL-60, in the assay with UACC-257 and in the assay on SF-539 was > 100 µM (inactive) throughout. In addition, the GI50 in the assay with M14 was > 100 µM (inactive).

Consider `CC1(C)OCC(CO)(Nc2nc(N3CC3)nc(N3CC3)n2)CO1`, for which the GI50 with LOX IMVI is 5.52 µM (inactive); in the assay on SK-MEL-2, 19 µM (inactive); in the assay with MDA-MB-435, 19.5 µM (inactive); in the assay with SN12C, 7.71 µM (inactive); with NCI-H23 it was 4.12 µM (inactive); with COLO 205, 20.3 µM (inactive). The GI50 in the assay with 786-0 was 3.88 µM (inactive); with PC-3, 17.9 µM (inactive); in the assay on SNB-19, 11.2 µM (inactive); in the assay with MOLT-4, 0.597 µM (active); in the assay on MDA-N, 13.3 µM (inactive); in the assay on IGROV-1, 20.6 µM (inactive). In addition, the GI50 was 16.9 µM (inactive) in the assay on Malme-3M; 24.6 µM (inactive) in the assay with TK-10; 0.38 µM (active) in the assay with NCI-H460; 0.69 µM (active) with HL-60; 14.7 µM (inactive) in the assay on UACC-257; 4.18 µM (inactive) in the assay on SF-539. Also, the GI50 in the assay with M14 was 9.2 µM (inactive).

For `NN/C(=N\S(=O)(=O)c1cc(Cl)c(Oc2ccc([N+](=O)[O-])cc2Cl)c(Cl)c1)Nc1ccc(Cl)cc1`, the GI50 is 21 µM (inactive) in the assay on LOX IMVI; 18 µM (inactive) with SK-MEL-2; 17.4 µM (inactive) in the assay with SN12C; 16.5 µM (inactive) with NCI-H23; 15.6 µM (inactive) in the assay on COLO 205; 18.2 µM (inactive) in the assay on 786-0. The GI50 was 26.5 µM (inactive) with PC-3; 23.8 µM (inactive) with SNB-19; 19.1 µM (inactive) in the assay with MOLT-4; 17.8 µM (inactive) with MDA-N; 20.2 µM (inactive) in the assay on IGROV-1; 21.8 µM (inactive) in the assay with Malme-3M. Also, the GI50 in the assay with TK-10 is 19.3 µM (inactive); with MCF7, 22.6 µM (inactive); in the assay with NCI-H460, 15.8 µM (inactive); in the assay with UACC-257 it was 17.6 µM (inactive); with SF-539, 14.7 µM (inactive); with M14, 17.4 µM (inactive).

`CCOC(=O)c1c(N)sc2c1C(C)(C(=O)OCC)CC2` (stereo not given): the GI50 with SK-MEL-2, with SN12C, with NCI-H23, with COLO 205, with 786-0 and in the assay with PC-3 was > 100 µM (inactive) throughout. The GI50 in the assay with SNB-19 is > 100 µM (inactive); in the assay on MOLT-4 it was 74.5 µM (inactive); with MDA-N, > 100 µM (inactive); with IGROV-1, > 100 µM (inactive); in the assay on Malme-3M, > 100 µM (inactive); in the assay with TK-10 it was > 100 µM (inactive). Moreover, the GI50 was > 100 µM (inactive) with MCF7; 69.5 µM (inactive) in the assay with NCI-H460; 96.8 µM (inactive) in the assay on HL-60; > 100 µM (inactive) with UACC-257; > 100 µM (inactive) in the assay on M14.

Take `CN(C)CCNc1ccc(NCC[N+](C)(C)Cc2ccc([N+](=O)[O-])cc2)c2c1C(=O)c1c(O)ccc(O)c1C2=O`: the GI50 is 25.5 µM (inactive) in the assay with LOX IMVI; > 100 µM (inactive) in the assay with SK-MEL-2; 35.2 µM (inactive) with MDA-MB-435; 12.2 µM (inactive) in the assay on SN12C; 54 µM (inactive) in the assay with NCI-H23; 27.6 µM (inactive) with COLO 205. In addition, the GI50 is 18.2 µM (inactive) with 786-0; 56 µM (inactive) in the assay with PC-3; > 100 µM (inactive) in the assay on SNB-19; 0.509 µM (active) with MOLT-4; 20.7 µM (inactive) in the assay on MDA-N; 40.3 µM (inactive) in the assay with IGROV-1. Further, the GI50 in the assay with HL-60 is 54.2 µM (inactive).

In the case of `c1ccc(CSc2nc(N3CCOCC3)c3cn[nH]c3n2)cc1`, the GI50 in the assay on LOX IMVI is 15.4 µM (inactive); with SK-MEL-2, 16.6 µM (inactive); with MDA-MB-435, 17.5 µM (inactive); in the assay with SN12C it was 13.4 µM (inactive); with NCI-H23 it was 49.2 µM (inactive); in the assay with COLO 205 it was 12.6 µM (inactive). Also, the GI50 in the assay on 786-0 was 37.7 µM (inactive); in the assay on PC-3 it was 13.4 µM (inactive); in the assay with SNB-19 it was 24.7 µM (inactive); in the assay on MOLT-4, 22.2 µM (inactive); in the assay with IGROV-1, 10.2 µM (inactive); with Malme-3M it was 14.1 µM (inactive). Moreover, the GI50 with TK-10 was 18.5 µM (inactive); in the assay with MCF7 it was 23.1 µM (inactive); in the assay with NCI-H460, 17.8 µM (inactive); in the assay with HL-60, 36.6 µM (inactive); in the assay with UACC-257, 15 µM (inactive); with SF-539, 21 µM (inactive). For the same compound, the GI50 with M14 is 23.6 µM (inactive).

Turning to `CCOP(=O)(O)CC1OC(CO)C(O)C1O` (stereo not given), the GI50 in the assay on LOX IMVI, in the assay with SK-MEL-2, in the assay with SN12C, in the assay on NCI-H23, in the assay on COLO 205 and in the assay with 786-0 was > 100 µM (inactive) in each case. Also, the GI50 with PC-3, in the assay with SNB-19, in the assay with MOLT-4, in the assay on MDA-N, in the assay with IGROV-1 and in the assay with Malme-3M was > 100 µM (inactive) in each case. Also, the GI50 with TK-10, in the assay with NCI-H460, with UACC-257, with SF-539 and in the assay with M14 was > 100 µM (inactive) throughout.

The values are drawn from ChEMBL document CHEMBL1201862, “PubChem BioAssay data set” (2004).
